“Also recorded” adds a separate entry of the source. Where a name gives a salt, the structure may show the parent alone.
Tests used:
[1] = tested on: ischemia-induced [^3H]-Glu release; experiment: in vitro ischemia model: ischemia-induced [^3H]-Glu release from [^3H]-Gln-loaded hippocampal slices; format: cell-based, rat
Procedure: Rat hippocampus slices 350 μm thick were incubated in 3 ml of medium at 37° C. for 60 minutes. The medium contained 2 μM [^3H]-Gln to label the endogenous Gln pool. The slices then synthesized Glu. The slices were washed and then exposed to superfusion with a buffer for 50 minutes. At 5-minute intervals, [^3H]-Glu was extracted by anion exchange chromatography from a total of 15 superfusion samples and was measured by liquid scintillation counting. The fractional rates of [^3H]-Glu release were calculated from the [^3H]-Glu extracted from the superfusion samples and from the tissue slices after the superfusion.
The model of endogenously produced [^3H]-Glu was likewise used to generate ischemic conditions in vitro. To make a slice “quasi ischemic”, oxygen and glucose were replaced by nitrogen and sucrose during the superfusion. Sucrose was used in place of […] glucose in order to maintain the osmolarity of the superfusion fluid. It is known that sucrose cannot be cleaved in vitro to glucose and fructose. Unlike the tests in which the [^3H]-Glu release was induced electrically, and in order to simulate an ischemia as well as possible, the [^3H]-Glu release was carried out during the incubation and superfusion at 37° C.
Slices of 350 μm thickness were incubated at 37° C. for 60 min in 3 ml medium containing 2 μM [^3H]-Gln in order to label endogenous Gln pools. These slices subsequently were synthesizing Glu. The slices were washed and then superfused for 50 min with buffer. [^3H]-Glu was extracted from 15 5-min-superfusion samples and from the slices by anion-exchange chromatography and measured by liquid scintillation counting. Fractional rates of [^3H]-Glu release were calculated from extracted [^3H]-Glu in the superfusion samples and in the tissue slices obtained after superfusion.
To reproduce in vitro ischemic conditions the model of endogenously formed [^3H]-Glu was also used. To make a slice “quasi-ischemic”, oxygen was replaced by nitrogen and glucose was replaced by sucrose during superfusion. Sucrose was used instead of glucose in order to maintain the osmolarity of the superfusion fluid without being cleaved into glucose and fructose in vitro. At variance to the experiments on electrically evoked [^3H]-Glu release and in order to mimic ischemia as close as possible the experiments on ischemia-induced [^3H]-Glu release were performed at 37° C. throughout incubation and superfusion.
To assess the potency of glibenclamide concentration-inhibition curves of GBP-L on ischemia-induced [^3H]-Glu efflux were obtained in the absence and presence of 0.1 μM glibenclamide (see Jehle et al. 2000).

[2] = tested on: electrically evoked release of Glu; experiment: electrically evoked [^3H]-Glu release from [^3H]-Gln-loaded hippocampus slices; format: cell-based, rat
[3] = tested on: mitochondrial KATP channels; conditions: for comparison; cited from earlier work
[4] = tested on: potassium-evoked release of [^3H]-noradrenaline; conditions: cited from earlier work

## O=C(O)[C@@H]1CN[C@@H](C(=O)O)C1 (relative stereo) [PDC, L-trans-pyrrolidine-2,4-dicarboxylate]
[1]; 100 μM
  response to the ischemia ([^3H]-Glu release): noticeably reduced; also recorded: diminishes the response to ischemia markedly

## NC1=N[C@H](O)[C@H]2[C@H]3O[C@]4(O)O[C@@H]([C@@H](O)[C@@]2(N1)[C@@H]4O)[C@]3(O)CO [TTX, tetrodotoxin, reference compound]
[2]
  electrically evoked release of Glu (in words): partly inhibited; also recorded: widely inhibited

## CC1=NS(=O)(=O)c2cc(Cl)ccc2N1 [diazoxide]
[3]
  IC50: 50 µM

## COc1ccc(Cl)cc1C(=O)NCCc1ccc(S(=O)(=O)NC(=O)NC2CCCCC2)cc1 [glibenclamide]
[1]; glibenclamide 0.1 μM against GBP-L concentration-response curve
  pA2 value: 8.28
[1]; glibenclamide 1 μM
  influence on the effect of GBP-L on ischemia-induced [^3H]-Glu release: completely abolished

## Nc1cc(N2CCCCC2)nc(N)[n+]1OS(=O)(=O)[O-] [minoxidil sulfate]
[1]; 10 μM
  ischemia-induced [^3H]-Glu efflux (in words): significantly reduced

## CC(C)C[C@H](CN)CC(=O)O [pregabalin]
[4]
  potassium-evoked release of [^3H]-noradrenaline (in words): inhibitory effects
